Consider four compounds from patent publication US12171866B2, “Lipid emulsion for parenteral nutrition comprising GPC” (BAXTER INTERNATIONAL INC., priority 2018, dated 2024).

In series [1] the test system is male Sprague-Dawley rats with steatosis, induced by choline and methionine deficient (MCD) diet. The series is described as follows: Alanine aminotransferase (ALT) activity in plasma, animal study Step #2 (FIG. 1). In kind it is in vivo, rat. Here is the method: ALT activity is determined by a modification recommended by the International Federation of Clinical Chemistry (IFCC), see also Example 2. ALT catalyzes the reaction of alpha-ketoglutarate with L-alanine to form L-glutamate and pyruvate. Under the action of LDH, pyruvate converts to lactate, and NADH is converted to NAD. The decrease in absorbance of NADH, measured at 340 nm (secondary wavelength is 700 nm), is directly proportional to the serum activity of ALT. It is a kinetic reaction. In general, serum is used for analysis. The serum is separated from the cells within 2 hours of collection and stored at -70° C. until assayed, Monitoring the ALT activity over time in an animal model is used herein as one straightforward and conclusive way to determine the efficacy of GPC in treating liver disease, specifically liver damage caused by a choline-deficient diet (Examples 1 and 2, FIGS. 1 and 2), Plasma-free choline concentration can be determined by high-pressure liquid chromatography (HPLC) and gas chromatography-mass spectrometry according to protocols known in the art (Pomfret et. al.: Measurement of choline and choline metabolite concentrations using high pressure liquid chromatography and gas chromatography-mass spectrometry. Anal Biochem. 1989; 180: 85-90). The effects of GPC as well as of the combination of DHA, ARA and GPC were investigated in a sick animal model, wherein male Sprague-Dawley rats with steatosis, induced by choline and methionine deficient (MCD) diet (S SNIFF MCD pelleted choline/methionine deficient diet (SSNIFF Spezialdiäten GmbH, Soest, Germany, Product No. E15653-94)) were kept on parenteral nutrition. Steatosis was confirmed in the respective groups by histopathology (Example 3). Parenteral nutrition started after 14 days under MCD diet. First measurements were done after 5 days of parenteral nutrition, followed by measurements after 9 and 17 days. The daily lipid uptake was 2.31 g/kg/d. The rats were split into several groups as set forth below in Table I. Two groups served as control groups, wherein a first group was treated with saline solution (0.90% w/v of NaCl in water for injection). A second group received a lipid emulsion (“LE 10%”) containing refined olive oil (80.0 g/L) and refined soybean oil (20.0 g/L) in water for injection, pH 6-8; LE 10% further contained egg lecithin (6.0 g/L), glycerol (11.25 g/L) and sodium oleate (0.15 g/L). LE 10% contained 100 g/L lipids. […] Pharmaceutical Secondary Standard, was purchased from Sigma-Aldrich (Merck KGaA, Germany). […] As described before, liver damage (cholestasis) may be determined by increased aminotransferase levels. ALT activity was determined with an ADVIA 1800 blood biochemistry analyzer/IFCC modified (Siemens) according to standard protocols such as described before.

Series [2] has the same test system. The series is described as follows: ALT activity in percent of the normal value, animal study Step #3 (FIG. 2). In kind it is in vivo, rat. Here is the method:
ALT activity is determined by a modification recommended by the International Federation of Clinical Chemistry (IFCC), see also Example 2. ALT catalyzes the reaction of alpha-ketoglutarate with L-alanine to form L-glutamate and pyruvate. Under the action of LDH, pyruvate converts to lactate, and NADH is converted to NAD. The decrease in absorbance of NADH, measured at 340 nm (secondary wavelength is 700 nm), is directly proportional to the serum activity of ALT. It is a kinetic reaction. In general, serum is used for analysis. The serum is separated from the cells within 2 hours of collection and stored at −70° C. until assayed, Monitoring the ALT activity over time in an animal model is used herein as one straightforward and conclusive way to determine the efficacy of GPC in treating liver disease, specifically liver damage caused by a choline-deficient diet (Examples 1 and 2, FIGS. 1 and 2), Plasma-free choline concentration can be determined by high-pressure liquid chromatography (HPLC) and gas chromatography-mass spectrometry according to protocols known in the art (Pomfret et. al.: Measurement of choline and choline metabolite concentrations using high pressure liquid chromatography and gas chromatography-mass spectrometry. Anal Biochem. 1989; 180: 85-90). […] As described before, liver damage (cholestasis) may be determined by increased aminotransferase levels. […]

Series [3] has the same test system. The series is described as follows: Liver histopathology, vacuolation, choline derivatives alone, Step #2 (FIG. 3A). In kind it is in vivo, rat. Conditions: no DHA and ARA. An excerpt: (§1) The effects of GPC as well as of the combination of DHA, ARA and GPC were investigated in a sick animal model, wherein male Sprague-Dawley rats with steatosis, induced by choline and methionine deficient (MCD) diet (S SNIFF MCD pelleted choline/methionine deficient diet (SSNIFF Spezialdiäten GmbH, Soest, Germany, Product No. E15653-94)) were kept on parenteral nutrition.
(§2) Parenteral nutrition started after 14 days under MCD diet. First measurements were done after 5 days of parenteral nutrition, followed by measurements after 9 and 17 days. The daily lipid uptake was 2.31 g/kg/d. The rats were split into several groups as set forth below in Table I.
(§3) Two groups served as control groups, wherein a first group was treated with saline solution (0.90% w/v of NaCl in water for injection). A second group received a lipid emulsion (“LE 10%”) containing refined olive oil (80.0 g/L) and refined soybean oil (20.0 g/L) in water for injection, pH 6-8; LE 10% further contained egg lecithin (6.0 g/L), glycerol (11.25 g/L) and sodium oleate (0.15 g/L). LE 10% contained 100 g/L lipids.
(§4) Various choline derivatives selected from the group consisting of choline chloride, glycerophosphocholine (GPC) and cytidine diphosphate-choline (CDP-choline) were added in two concentrations (low/high) to LE 10%, respectively, see Table I (Step #2). “Low” refers to a concentration of 15 mmol/L lipid emulsion, “high” refers to a concentration of 31 mmol/L of lipid emulsion. Choline chloride (2-Hydroxyethyl)trimethylammonium chloride). Pharmaceutical Secondary Standard, was purchased from Sigma-Aldrich (Merck KGaA, Germany). CDP-choline (prepared by fermentation) was from TCI Europe N.V. (Antwerp, Belgium). Glycerophosphocholine, prepared from egg phosphatide by saponification, was supplied by Lipoid GmbH, Germany. DHA (from algae, Schizochytrium sp.) and ARA (from fungi, Mortierella alpina) were purchased from BASF AG, Germany, Vitamin E was purchased from ADM (IL, U.S.A.)

Series [4] shares this test system. The series is described as follows: Liver weight to body weight ratio (FIG. 4). The class given is in vivo, rat.
From the text: as §1, §2, §3, §4
The study groups as described in Example 1 were further evaluated with regard to the development of liver weight versus body weight. An increase in liver weight which is not proportional to the increase of body weight is typical for the development of liver damage, specifically steatosis, as described before.

The nature of series [5]: Stability of lipid emulsions upon sterilization in the presence of choline derivatives. To be noted: for Stability of lipid emulsion upon sterilization (Comment): heat sterilization; for stability of the lipid emulsions during sterilization (heat): lipid emulsions prepared as in Example 1. In kind it is physicochemical. The source says:
In a first step, raw phases are heated up. […] The receiving vessel is closed and flushed with nitrogen.

The mark [6] stands for this setting: plasma, day 5 to day 17 of parenteral nutrition, choline derivative 31 mmol/L (high) in LE 10%.
Where [7] appears, read: choline derivative high, 31 mmol/L in LE 10%.
[8] abbreviates: choline derivative low, 15 mmol/L in LE 10%.
Setting [9] is: choline derivative high, 31 mmol/L in LE 10%, versus LE 10% alone.
Where [10] appears, read: phosphatidylcholine as contained in the lipid emulsion(s).

“Also recorded” adds a separate entry of the source.

With `C[N+](C)(C)CCOP(=O)([O-])OC[C@@H](O)CO` [GPC, (2-{[(2S)-2,3-dihydroxypropylphosphonato]oxy}ethyl)trimethylazanium], in series [1] (setting [6]), the “development of ALT activity” value is listed as “clear drop in ALT activity; also recorded: most pronounced”. In series [2] (GPC 40 mmol/L in lipid emulsion, normal (LE 10%) or reduced (LE 13%) phytosterol content), the “ALT activity, change versus normal value” is given as “significant decrease of ALT activity”. Moreover, the “effect on liver vacuolation (histopathological examination)” value (“effect … (histopathological examination)” below) in series [3] (setting [7]) and in series [3] (setting [8]) was “significantly better” throughout. For the same compound, the “liver to body weight ratio” value in series [4] (setting [9]) is “most pronounced reduction of the ratio”. Also, the “Stability of lipid emulsion upon sterilization (Comment)” value (from here on “Stability … (Comment)”) in series [5] (30 mmol/L, lipid emulsions tested LE 10, 20 %) was “Stable emulsion”. Also, in series [5], the “stability of the lipid emulsions during sterilization (heat)” value (“stability … (heat)” below) was “remained stable”.

As for `C[N+](C)(C)CCO.[Cl-]` [choline chloride, (2-Hydroxyethyl)trimethylammonium chloride], the “development of ALT activity” value in series [1] (setting [6]) is recorded as “ALT activity neither significantly increases or decreases”. Moreover, the “effect … (histopathological examination)” value in series [3] (setting [7]) and in series [3] (setting [8]) was “fared better than those with only saline or lipid emulsion without any choline derivative” throughout. Besides, the “liver to body weight ratio” value in series [4] (setting [9]) is “reduction of the ratio”. Further, the “Stability … (Comment)” value in series [5] (15 mmol/L, lipid emulsions tested LE 10, 13, 20 %) is “Phase separation”. For the same compound, the “stability … (heat)” value in series [5] is “destabilize the lipid emulsions during sterilization”.

On to phosphatidylcholine, for which the “development of ALT activity” value in series [1] (phosphatidylcholine as contained in LE lipid emulsion, 17 days parenteral nutrition) is reported as “does not seem to have any effect”. Further, in series [2] (setting [10]), the “ALT activity, change versus normal value” was “does not seem to have any effect”. The “liver to body weight ratio” value in series [4] (setting [10]) is reported as “does not seem to have any effect”.

For the compound `C[N+](C)(C)CCOP(=O)(O)OP(=O)([O-])OC[C@H]1O[C@@H](n2ccc(N)nc2=O)[C@H](O)[C@@H]1O` [CDP-choline, cytidine diphosphate-choline], the “development of ALT activity” value in series [1] (setting [6]) was “ALT activity neither significantly increases or decreases”. Further, in series [3] (setting [8]), the “effect … (histopathological examination)” value is reported as “also had an effect”. Moreover, the “liver to body weight ratio” value in series [4] (setting [9]) was “reduction of the ratio”. The “Stability … (Comment)” value in series [5] (30 mmol/L, lipid emulsion tested LE 10 %) was “Phase separation”. Also, in series [5], the “stability … (heat)” value is reported as “destabilize the lipid emulsions during sterilization”.
